SMILES strings stand for the structures. Read-outs that look alike come from different tables or passages of the source.

One may read the IC50 as the point on the concentration scale where inhibition reaches its midpoint. Broadly, the AUC is concentration integrated over time. The Cmax is the peak of the concentration-time curve. In general, half-life refers to the time in which the quantity being followed falls by half. High values mean slow loss, low ones fast loss.

The test system of one data set is U87 cells. Nature of the data set: 72-hour cell viability assay (Alamar Blue), U87. Type of data set: cell-based. The settings on record: WT BRAF. On the procedure:
(§1) Cell Culture and reagents. All cell lines were grown in a 37° C., 5% CO2, humidified environment, in media containing 1% penicillin/streptomycin. Cell culture conditions are as follows: MDCK cells transfected with MDR1 (or ABCB1) were obtained from the Netherlands Cancer Institute (Amsterdam, The Netherlands) and maintained in DMEM with 10% fetal bovine serum (FBS, Gemini). Traditional cell lines A375, CHL-1, B16F10, and U118MG were grown in DMEM with 10% FBS, SK-MEL-28, U87 and T98G in EMEM with 10% FBS, AM-38 in EMEM with 20% HI-FBS (Gibco), HT29 in McCoy's 5A with 10% FBS, HCT116 in RPMI with 10% FBS. Compounds were dissolved in DMSO (1% final concentration, Sigma-Aldrich) for cell culture studies.
(§2) Cell viability assays. Cells were harvested, seeded in a 96-well plate and allowed to adhere overnight. Compound was added to each well in DMSO (1% final concentration). Cells were incubated for 72 hours before viability was assessed by the Alamar Blue Assay. Raptinal ([…]) was used as a dead control.

Data set [1] deals with V600EBRAF melanoma cell lines. Nature of the data set: Cell viability, panel of V600E BRAF melanoma cell lines. Type of data set: cell-based. The settings on record: range over the panel; read-out: IC50 values against a panel of V600EBRAF melanoma cell lines. On the procedure:
as §1, §2

Another data set deals with cell lines with WTBRAF. Nature of the data set: Cell viability, cell lines with WT BRAF. Type of data set: cell-based. On the procedure: as §1, §2
Data set [2] is described as follows: Blood-brain barrier penetrance, brain and serum levels after single IV injection. It counts as in vivo. As to conditions: CD-1, mouse, 60 min after single 25 mg/kg IV injection, read-out: brain-to-serum ratio. As to the method: (§3) Blood-brain barrier penetrance P-gp in vivo assays. All experimental procedures were reviewed and approved by the University of Illinois Institutional Animal Care and Use Committee (Protocol number: 19191). CD-1 mice were purchased from Charles River and acclimated for 4-7 days before use. Mice were administered elacridar or its vehicle at 2.5 mg/kg via lateral tail vein injection. Thirty-minutes post injection, mice were then treated with compounds at 25 mg/kg intravenously now in the other tail vein. At each time point, mice were sacrificed and blood was collected by lacerating the right auricle with iris scissors. An 18-gauge angiocatheter was inserted through the left ventricle, and all residual circulatory volume was removed by perfusing 0.9% saline solution via an analog peristaltic pump. Brains were harvested from the cranial vault and flash frozen. Blood samples were centrifuged at 13,000 ref for 10 minutes and the supernatant serum was stored at −80° C. until analysis. Brain samples were homogenized in ice-cold methanol and centrifuged first at 2000 ref for three minutes and then 13,000 ref for ten minutes and supernatant and tissue debris were separated and stored at −80° C. The resultant supernatant and serum were analyzed by LC-MS/MS to determine compound concentrations. […] All compounds were administered at 5 mL/kg.

For the next data set, the target named is T1, P-gp (Mus musculus, UniProt P21447).
T1 construct: tissue Charles River (CD-1 mice); host or cells: living CD-1 mice; blood-brain barrier / brain
Nature of the data set: P-gp in vivo assay (elacridar pretreatment). As to conditions: for enhancement of BBB penetrance by P-gp inhibition: elacridar 2.5 mg/kg, compound 25 mg/kg IV. On the procedure:
Actionability in animals. […] At each time point, blood and brain were harvested, and compound concentrations in each compartment were quantified.
In this experiment, brain-to-blood ratios of P-gp substrates […] with the P-gp inhibitor compared to vehicle, while those of non-substrates will remain the same.
as §3, with “All experimental procedures were reviewed and approved by the University of Illinois Institutional Animal Care and Use Committee (Protocol number: 19191).” left out

Data set [3] can be described thus: Pharmacokinetics in CD-1 mice, serum by LC-MS/MS. Type of data set: in vivo, mouse.
The test system of data set [4] is A375 melanoma cells intracranially implanted. Nature of the data set: A375 intracranial mouse model of melanoma metastasis. As to conditions: 50 mg/kg IP once a day, two 5-day cycles, 10 doses. It counts as in vivo.
Experimental: Number of mice per cohort n>3. […] (C) Evaluation of everafenib in an intracranial mouse model. 50,000 A375 melanoma cells were intracranially implanted into 7-week old female athymic nude mice. Five days after inoculation, mice were treated with the vehicle or 50 mg/kg of dabrafenib or everafenib intraperitoneal (IP) once a day for 5 days. After 2 days off, another five daily doses were administered, a total of 10 treatments in the model. Cells were tested to be free of pathogens prior to inoculation. […] Number of mice per cohort=6. Statistical significance was determined by a two-tailed log-rank (Mantel-Cox) test. **P<0.01 ***P<0.001 ****P<0.0001.
Such a model has been developed using intracranial implantation of the A375 melanoma cell line, and thus, this macro-metastatic model via injection of A375 cells to the mouse forebrain was used to assess everafenib and dabrafenib head-to-head. In the experiment, mice were intracranially implanted with A375 cells and then 5 days later were treated with 50 mg/kg of dabrafenib or everafenib (two cycles of once-per-day for 5 days via IP injection, a total of 10 doses).
In vivo efficacy model. […] Human melanoma A375 cells were intracranially implanted in 7-week-old female athymic nude mice (50,000 cells/mouse). Cells were tested to be free of pathogens prior to inoculation. […]
The test system of data set [5] is MAPK signaling (phospho-MEK1/2, phospho-ERK1/2) in A375 cells. Nature of the data set: Immunoblotting of MEK1/2 and ERK1/2 phosphorylation, A375. As to conditions: for dose-response of phospho-ERK1/2 inhibition: A375, 0.01-10 μM, 1 and 24 h; for inhibition of MAPK signaling (MEK1/2 and ERK1/2 phosphorylation): A375, 1 h of treatment; for inhibition of ERK1/2 phosphorylation after 24 h: A375, highest concentrations (10 μM). It counts as cell-based, human. On the procedure: (§4) Immunoblotting. Cells were lysed using RIPA buffer containing phosphatase (BioVision) and protease inhibitor cocktail (Calbiochem). Protein concentration was determined using the BCA assay (Pierce). Cell lysates containing […] of protein were loaded into each lane of 4% to 20% gradient gels (Bio-Rad) for SDS-PAGE. Proteins were transferred onto PDVF membrane for Western blot analysis. Blots were blocked with BSA for one hour followed by incubation with primary antibody overnight (dilution according to manufacturer's protocols), and then secondary antibody was incubated for one hour. Blots were then imaged with a ChemiDoc Touch (Bio-Rad) after incubation with SuperSignal West Pico Solution (ThermoFischer) following manufacturer's protocols. All antibodies were purchased from Cell Signaling Technology: p-ERK (9101S), ERK (4695S), p-MEK (9121S), MEK (8727S), vinculin (13901S) Rabbit IgG-HRP (7074), […] (5125).

For data set [6], the system named is MAPK signaling (phospho-MEK1/2, phospho-ERK1/2) in AM-38 cells. Nature of the data set: Immunoblotting of MEK1/2 and ERK1/2 phosphorylation, AM-38. It counts as cell-based. The settings on record: AM-38, 1 h of treatment. As to the method:
as §4
(In general: In western blotting, separated proteins are transferred to a membrane and probed.)

Setting [7] is: Homo sapiens, U-87 MG, read-out: U87 IC50.
The mark [8] stands for this setting: Homo sapiens, glioma, read-out: U87 (WT) IC50.
Setting [9] is: 20 mg/kg IP, CD-1 mice, one-compartment model, listed as 261.
Where [10] appears, read: 20 mg/kg IP, CD-1 mice, one-compartment model, listed as everafenib.
Where [11] appears, read: CD-1, mouse, serum, intraperitoneal, 20 mg/kg IP, read-out: [Drug] serum concentration.
[12] abbreviates: CD-1, mouse, serum, 25 mg/kg IV, read-out: [Drug] serum concentration.

T1 sequence (P21447 whole entry): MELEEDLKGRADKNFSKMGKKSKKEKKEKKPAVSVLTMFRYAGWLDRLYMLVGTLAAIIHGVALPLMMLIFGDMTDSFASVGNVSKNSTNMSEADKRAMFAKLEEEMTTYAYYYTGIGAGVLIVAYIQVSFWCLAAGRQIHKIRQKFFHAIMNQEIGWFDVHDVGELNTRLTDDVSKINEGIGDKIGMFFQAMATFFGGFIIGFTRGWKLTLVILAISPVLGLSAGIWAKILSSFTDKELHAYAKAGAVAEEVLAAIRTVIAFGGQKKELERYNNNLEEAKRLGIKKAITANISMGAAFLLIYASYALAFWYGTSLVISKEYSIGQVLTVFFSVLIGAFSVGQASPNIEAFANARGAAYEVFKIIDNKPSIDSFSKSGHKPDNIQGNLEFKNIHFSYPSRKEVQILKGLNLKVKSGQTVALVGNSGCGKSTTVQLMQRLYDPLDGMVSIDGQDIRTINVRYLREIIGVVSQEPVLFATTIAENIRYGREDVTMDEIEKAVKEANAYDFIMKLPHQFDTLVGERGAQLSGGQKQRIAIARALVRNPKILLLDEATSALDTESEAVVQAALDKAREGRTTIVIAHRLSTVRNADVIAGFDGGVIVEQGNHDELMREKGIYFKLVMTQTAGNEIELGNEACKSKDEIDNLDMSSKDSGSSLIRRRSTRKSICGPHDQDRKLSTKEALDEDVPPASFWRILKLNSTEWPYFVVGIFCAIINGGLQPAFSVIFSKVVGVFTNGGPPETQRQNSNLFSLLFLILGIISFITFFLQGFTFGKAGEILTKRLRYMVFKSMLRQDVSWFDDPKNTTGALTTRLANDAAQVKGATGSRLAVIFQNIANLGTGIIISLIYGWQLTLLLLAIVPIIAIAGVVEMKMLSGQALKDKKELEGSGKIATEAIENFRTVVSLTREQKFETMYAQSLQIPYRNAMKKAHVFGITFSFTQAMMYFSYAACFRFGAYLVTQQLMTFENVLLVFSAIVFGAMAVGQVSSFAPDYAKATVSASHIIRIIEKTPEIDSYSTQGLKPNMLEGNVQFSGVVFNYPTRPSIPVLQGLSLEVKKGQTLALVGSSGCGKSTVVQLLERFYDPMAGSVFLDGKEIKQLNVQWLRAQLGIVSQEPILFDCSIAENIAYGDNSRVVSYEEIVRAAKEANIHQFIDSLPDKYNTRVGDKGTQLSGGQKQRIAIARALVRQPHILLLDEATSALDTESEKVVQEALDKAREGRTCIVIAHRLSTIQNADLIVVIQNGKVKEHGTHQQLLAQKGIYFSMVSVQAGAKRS

As for `CCCS(=O)(=O)Nc1cc(Cl)cc(-c2nc(C(C)(C)C)sc2-c2ccnc(N)n2)c1F` [6-261, N-(3-(5-(2-aminopyrimidin-4-yl)-2-(tert-butyl)thiazol-4-yl)-5-chloro-2-fluorophenyl)propane-1-sulfonamide], the IC50 is over 1 µM with U87 cells (setting [7]), over 1 µM in the data set with U87 cells (setting [8]), 0.002 to 0.01 µM in [1] and over 1 µM with cell lines with WTBRAF. Besides, in the data set on cell lines with WTBRAF (cell culture), the “activity against glioma cell-lines with WTBRAF (U118MG, T98G, U87)” value is “no activity”. For the same molecule, the Kp at 60 min in [2] was determined as 0.286. Also, the “effect of P-gp inhibitor (elacridar) co-treatment on brain exposure” value at P-gp (result in words) was “did display potentiation”. The AUC in data set [3] (setting [9]) was 503964.63 ng·min/mL; in data set [3] (CD-1, mouse, serum, ip, 20 mg/kg, 20 mg/kg IP, CD-1 mice, one-compartment model, read-out: AUC (converted)) it was 504000 ng·min/mL. In addition, the CL in [3] (setting [9]) amounted to 39.69 mL/min/kg; in [3] (setting [10]) it was 39.7 mL/min/kg. In addition, the Cmax in data set [3] (setting [9]) stood at 9364.7721 ng/mL; in data set [3] (CD-1, mouse, serum, ip, 20 mg/kg, 20 mg/kg IP, CD-1 mice, one-compartment model, read-out: Cmax) it was 9360 ng/mL. In data set [3] (setting [9]), this molecule registered a T1/2 of 37.3 min. Also, the Vss in data set [3] (setting [9]) came out at 2.6929321 L/kg; in data set [3] (setting [10]), 2.6929 L/kg. Further, the concentration at 0 min in data set [3] (CD-1, mouse, serum, intraperitoneal, 20 mg/kg IP, 0 min, read-out: [Drug] serum concentration) was found to be 0 nM. The concentration at 15 min in [3] (setting [11]) was determined as 12.9 ± 0.557 µM; in [3] (setting [12]) it was 16.4 ± 0.719 µM. Further, the concentration at 30 min in data set [3] (CD-1, mouse, serum, intraperitoneal, 20 mg/kg IP, 30 min, read-out: [Drug] serum concentration) is 9.46 ± 0.621 µM. The concentration at 45 min in [3] (CD-1, mouse, serum, intraperitoneal, 20 mg/kg IP, 45 min, read-out: [Drug] serum concentration) was found to be 6.7 ± 0.122 µM. Besides, the figures for the concentration at 60 min in [3] (setting [11]) and in [3] (setting [12]) were 5.59 ± 0.167 µM and 6.56 ± 0.29 µM, respectively. In addition, in data set [3] (CD-1, mouse, serum, intraperitoneal, 20 mg/kg IP, 120 min, read-out: [Drug] serum concentration), the concentration at 120 min worked out at 2.55 ± 0.194 µM. In [3] (CD-1, mouse, serum, intraperitoneal, 20 mg/kg IP, 240 min, read-out: [Drug] serum concentration), the concentration at 240 min was 0.581 ± 0.118 µM. The concentration at 480 min in data set [3] (CD-1, mouse, serum, intraperitoneal, 20 mg/kg IP, 480 min, read-out: [Drug] serum concentration) came to 0.014 ± 0.00207 µM. Further, the concentration at 960 min in data set [3] (CD-1, mouse, serum, intraperitoneal, 20 mg/kg IP, 960 min, read-out: [Drug] serum concentration) worked out at 0 nM. Moreover, the half-life in data set [3] (CD-1, mouse, serum, ip, 20 mg/kg, 20 mg/kg IP, CD-1 mice, one-compartment model) turned out to be 37.3 min. The same molecule displayed a median survival in [4] of 50.5 days. The “dose-response of phospho-ERK1/2 inhibition” value in data set [5] is recorded as “clear dose-dependent inhibition”. In addition, the “inhibition of MAPK signaling (MEK1/2 and ERK1/2 phosphorylation)” value in data set [5] and in [6] was “strongly inhibited” in each case. The “inhibition of ERK1/2 phosphorylation after 24 h” value (from here on “inhibition … after 24 h”) in [5] is reported as “sustained”.
With `CCCS(=O)(=O)Nc1cc(Cl)cc(-c2nc(C(C)(C)C)sc2-c2ccnc(NCCCCC(=O)O)n2)c1F` [6-263, 5-((4-(2-(tert-butyl)-4-(5-chloro-2-fluoro-3-(propylsulfonamido)phenyl)thiazol-5-yl)pyrimidin-2-yl)amino)pentanoic acid], the IC50 in the data set with U87 cells (setting [7]) is over 10 µM; in the data set on U87 cells (setting [8]), over 10 µM; in the data set with cell lines with WTBRAF, over 1 µM. In addition, in [2], the Kp at 60 min lay within 0.0014 to 0.0069. In addition, the “enhancement of BBB penetrance by P-gp inhibition” value on P-gp (15 min) worked out at 1.5 fold; on P-gp (60 min), 2.5 fold. In [5], the “dose-response of phospho-ERK1/2 inhibition” value is listed as “clear dose-dependent inhibition”. The “inhibition of MAPK signaling (MEK1/2 and ERK1/2 phosphorylation)” value in data set [5] and in data set [6] was “strongly inhibited” each time. For the same molecule, in data set [5], the “inhibition … after 24 h” value is on record as “sustained”.
For `CC(C)(C)c1nc(-c2cccc(NS(=O)(=O)c3c(F)cccc3F)c2F)c(-c2ccnc(N)n2)s1` [Dabrafenib, reference compound], the IC50 with U87 cells (read-out: U87 IC50) was over 1 µM. For the same molecule, the “enhancement of BBB penetrance by P-gp inhibition” value was 4.3 fold at P-gp (15 min) and 5.8 fold on P-gp (60 min). In addition, the median survival in data set [4] was determined as 39 days. The “inhibition … after 24 h” value in data set [5] was “diminished inhibition”.

Source of the values: patent US20250230151A1, “COMPOUNDS FOR CANCERS DRIVEN BY BRAF MUTATION” (THE BOARD OF TRUSTEES OF THE UNIVERSITY OF ILLINOIS, priority 2021, published 2025).
